Measurements published in US20260159854A1, “NOVEL CARRIERS FOR NUCLEIC ACID AND/OR PROTEIN DELIVERY” (LUDWIG-MAXIMILIANS-UNIVERSITÄT MÜNCHEN, priority 2022, published 2026).

Legend:
[1] = Particle size, polydispersity and zeta potential measurement (DLS, ELS); assay type: physicochemical; parameters: Zeta / Size: unit not given here
Description: 6.6 Particle Size and Zeta Potential Measurement for pDNA, mRNA, siRNA, Cas9 mRNA/sgRNA and Cas9 mRNA/sgRNA/ssDNA Polyplexes as Well as mRNA LNPs
Measurements of size and zeta potential were performed with a Zetasizer Nano ZS (Malvern Instruments, Malvern, Worcestershire, U.K.) in a folded capillary cell (DTS1070) by dynamic and electrophoretic laser-light scattering (DLS, ELS). […] Samples were measured three times with six sub runs per measurement. For measurement of the zeta potential, all samples were diluted to 800 μL with HBG or HEPES (for siRNA polyplexes) directly before measurement. Parameters were identical to the size measurement apart from an equilibration time of 60 sec. Three measurements with 15 sub runs lasting 10 sec each were performed, and zeta potentials were calculated by the Smuchowski equation.

[2] = tested on: Huh7 cells; assay: Luciferase gene expression of mRNA LNPs in Huh7 cells; assay type: cell-based, human; settings: 62.5 ng mRNA/well, N/P 9
[3] = tested on: N2a/eGFPLuc, KB/eGFPLuc, and CT26/eGFPLuc; assay: Gene silencing activity of siRNA LNPs in three cell lines; assay type: cell-based; settings: N/P 9, 63 and 31 ng siRNA/well, 48 h
[4] = tested on: N2a cells; assay: Co-delivery efficiency of mRNA/pDNA polyplexes by flow cytometry; assay type: cell-based, murine; settings: N/P 18, 25 and 50 ng combined nucleic acid/well
Description: CleanCap® mCherry mRNA (5moU) (Trilink Biotechnologies, San Diego, CA, USA) and pEGFP-N1 pDNA (Clontech Laboratories, Inc. (now Takara Bio USA, Inc., San Jose, CA, USA)) at a fixed weight ratio of 1:1 were mixed and diluted in HBG. Calculated amounts of aminolipid at indicated N/P (nitrogen/phosphate) ratios (see above) were diluted in separate tubes of HBG. Equal volumes of nucleic acid solution and aminolipid solution were mixed by rapid pipetting and incubated 40 min at RT in a closed Eppendorf reaction tube. The final concentration of nucleic acid in the polyplex solution was 5 μg/mL (2.5 μg/mL mCherry mRNA plus 2.5 μg/mL pEGFP-N1 pDNA).
mRNA/pDNA polyplex treatments were performed in triplicate in 96-well plates. N2a cells were seeded 24 h prior to transfection (10,000 cells/well). On the next day, the medium was replaced with 80 μL of fresh pre-warmed medium containing 10% (v/v) FBS. The nanoparticles were prepared as described above, and the volumes of 10 and 5 μL of polyplex solution (2.5 μg/mL mCherry mRNA and 2.5 μg/mL pEGFP-N1 pDNA) were added. 20 μL HBG buffer per well was used as negative control. After 24 h of treatment, cells were collected and re-suspended in PBS solution containing 10% (v/v) FBS (FACS buffer) for flow cytometric evaluation. All samples were analyzed by flow cytometry using a CytoFLEX S Flow Cytometer (Beckman Coulter, Brea, CA, USA). Shortly before the measurement, 1 ng/μL 4′, 6-diamidino-2-phenylindole (DAPI) was added and used to discriminate between viable and dead cells. The cellular fluorescence was assayed by excitation of DAPI at 405 nm and detection of emission at 450 nm. Only isolated viable cells were evaluated. Gates were set compared to control measurements with HBG buffer-treated cells. […] Flow cytometry data were analyzed using FlowJo™ v10.8 flow cytometric analysis software by FlowJo, LLC (Becton, Dickinson and Company, U.S.). The cellular fluorescence expression was assayed by excitation at 561 nm and 488 nm, the detection of emission at 610 nm and 530 nm for mCherry and eGFP, respectively.

[5] = tested on: N2a/eGFPLuc, DU145/eGFPLuc, and KB/eGFPLuc; assay: Gene silencing activity of siRNA polyplexes in three cell lines; assay type: cell-based, murine, human; settings: N/P 18, 15.6 ng siRNA/well, 48 h
[6] = tested on: Huh7 cells; assay: Luciferase expression assay of pDNA polyplexes in Huh7 cells; assay type: cell-based, human
[7] = tested on: KB, U87, and HCT116 cells; settings: 10 ng poly(I:C) per well, 48 h, especially in KB cells
Description: The cytotoxic effect of double-stranded RNA (poly(I:C)) was evaluated in cancer cells using LAF carriers 1611, 1719, and 1752. The toxicity induced by poly(I:C) and carriers were differentiated by using non-toxic single-stranded poly(I). LPEI and the LAF-Stp carriers were transfected in medium supplemented with 10% (v/v) FBS. In the case of lipofectamine, particles were prepared and transfected according to the manufacturer's protocol (particle formation as well as transfection in serum-free medium; ThermoFisher). At 4 h after lipofectamine transfection, medium was replaced with fresh medium supplemented with 10% (v/v) FBS followed by incubation of 48 h in total. The percentage of cell survival was calculated relative to the HBG buffer-treated control cells (n=3, mean+SD).

[8] = tested on: N2a tumor-bearing A/J mice; assay: Ex vivo luciferase expression after intravenous injection of mRNA polyplexes; assay type: in vivo; settings: tumors, lungs, liver, spleen
Description: Neuro2a cells (10^6 cells/150 μL PBS) were inoculated subcutaneously into the left flank of 6-week-old female A/J mice (Envigo RMS GmbH, Dusseldorf, Germany). Mice were randomly divided into groups of three (in the case of mRNA LNPs) or five (in the case of mRNA polyplexes) and were housed in isolated ventilated cages under specific pathogen free conditions with a 12 h day/night interval, and food and water ad libitum. Weight and general well-being were monitored continuously. Tumor size was measured with a caliper and determined by formula: a*b^2/2 (a=longest side of the tumor; b=widest side vertical to a). When tumors reached a size of 250-500 mm3, the experiments were performed by intravenous tail vein injection of polyplexes or LNPs formed as described in 6.1 and 6.3, containing 1 μg, 3 μg or 10 μg of stabilized firefly luciferase encoding mRNA (CleanCap™ FLuc mRNA (5moU); Trilink Biotechnologies, San Diego, CA, USA) in 150 μL HBG. Polyplexes containing 10 μg mRNA were dialyzed for 1 h at 4° C. against HBG (dialysis membrane MWCO 100-500 Da; Spectra/Por®, Carl Roth, Karlsruhe, Germany) prior to application to remove small amounts of ethanol. […] The luciferase gene expression was determined as described above and is presented as relative light units (RLU) per gram (g) tumor/organ.
To evaluate luciferase mRNA delivery by an ex vivo luciferase gene expression assay, organ and tumor tissues were homogenized in Luciferase Cell Culture Lysis Reagent 1× (Promega, Mannheim, Germany), supplemented with 1% (v/v) protease and phosphatase inhibitor cocktail (Sigma-Aldrich, Munich, Germany) using a tissue and cell homogenizer (FastPrep®-24, MP Biomedicals, USA). […] Luciferase activity in 25 μL supernatant was measured in a Centro LB 960 plate reader luminometer (Berthold Technologies, Bad Wildbad, Germany) for 10 sec after addition of 100 μL/well of a LAR buffer solution (20 mM glycylglycine, 1.0 mM MgCl2, 0.10 mM EDTA, 3.3 mM DTT, 0.55 mM ATP, and 0.27 mM coenzyme A; pH 8-8.5) supplemented with 5% (v/v) of a mixture of 10 mM luciferin and 29 mM glycylglycine.

[9] = tested on: N2a/eGFPLuc cells; assay: eGFP knock out efficiency of Cas9 mRNA/sgGFP1 polyplexes by flow cytometry; assay type: cell-based, murine; settings: after 72 h
Description: For Cas9 mRNA/sgRNA polyplexes, CleanCap® Cas9 mRNA (5moU) (Trilink Biotechnologies, San Diego, CA, USA) and sgRNA at a fixed weight ratio of 1:1 were mixed and diluted in HBG.
Calculated amounts of aminolipid at indicated N/P (nitrogen/phosphate) ratios (see above) were diluted in separate tubes of HBG. Equal volumes of nucleic acid solution and aminolipid solution were mixed by rapid pipetting and incubated 40 min at RT in a closed Eppendorf reaction tube.
Cas9 mRNA/sgRNA polyplex treatments were performed in triplicate in 96-well plates. N2a eGPFLuc cells were seeded 24 h prior to transfection (5000 cells/well). On the next day, the medium was replaced with 80 μL of fresh pre-warmed medium containing 10% (v/v) FBS. The nanoparticles were prepared as described above, and the volumes of 20, 10, and 5 μL of polyplex solution (2.5 μg/mL Cas9 mRNA and 2.5 μg/mL sgGFP1) were added. 20 μL HBG buffer per well was used as negative control. After 24 h of treatment, the cells were expanded, and the medium was replaced by 100 μL of fresh pre-warmed medium and incubated for additional 48 h. […] Only isolated viable cells were evaluated. The eGFP knock out efficiency was determined as the percentage of eGFP negative cells normalized to the control measurements with HBG buffer-treated cells.

[10] = mRNA LNPs, 12.5 μg/mL CleanCap FLuc mRNA (5moU), N/P 9, molar ratios see Table A
[11] = siRNA LNPs, siCtrl 25 μg/mL, N/P 9
[12] = Cas9 mRNA/sgDMDex23 polyplexes, N/P 24, combined nucleic acid 12.5 μg/mL
[13] = PEGylated pDNA polyplexes 25% PEG, 10 μg/mL pCMVLuc
[14] = Targeted pDNA polyplexes 12.5% PEG 2k, 12.5% PEG-GE11, 10 μg/mL pCMVLuc
[15] = Unmodified pDNA polyplexes 0%, 10 μg/mL pCMVLuc
[16] = dialyzed mRNA polyplexes for in vivo application, 66.7 μg/mL mRNA, 1611 N/P 18, 1719 N/P 12
[17] = mRNA polyplexes, 12.5 μg/mL CleanCap FLuc mRNA (5moU), N/P 12 (1611, 1719, 1722, 1732), N/P 24 (1614), N/P 18 (1621, 1747)
[18] = pDNA polyplexes, N/P 12, 10 μg/mL pCMVLuc
[19] = poly(I) polyplexes, 12.5 μg/mL, 1611 N/P 18, 1719 N/P 12, 1752 N/P 24
[20] = poly(I:C) polyplexes, 12.5 μg/mL, 1611 N/P 18, 1719 N/P 12, 1752 N/P 24

K[K(14He)2]2-Stp [compound 1755]
Pdl [1, 10]: 0.220 | Z-average [1, 10]: 149.6 nm | Zeta potential [1, 10]: 2.26 mV | Pdl [1, 11]: 0.287 | Z-average [1, 11]: 160.6 nm | Zeta potential [1, 11]: 3.4 mV | luciferase expression of mRNA LNPs relative to SM-102 [2]: 2 fold

K[K(12He)2]2-Stp [compound 1754]
Pdl [1, 10]: 0.187 | Z-average [1, 10]: 171.0 nm | Zeta potential [1, 10]: 1.11 mV | Pdl [1, 11]: 0.144 | Z-average [1, 11]: 173.0 nm | Zeta potential [1, 11]: 2.2 mV | RLU values of mRNA LNPs relative to DLin-MC3-DMA [2]: 10 fold

K[K(16Bu)2]2-Stp [compound 1753]
gene silencing (eGFP silencing) of siRNA LNPs [3]: approximately the same potential for eGFP silencing | Pdl [1, 10]: 0.227 | Z-average [1, 10]: 142.1 nm | Zeta potential [1, 10]: 3.39 mV | Pdl [1, 11]: 0.292 | Z-average [1, 11]: 195.1 nm | Zeta potential [1, 11]: 2.6 mV

K(12Oc)2-Stp-K[K(12Oc)2] [compound 1716]
Pdl [1, 10]: 0.150 | Z-average [1, 10]: 200.9 nm | Zeta potential [1, 10]: −0.25 mV | mCherry mRNA/eGFP pDNA co-expression (co-delivery efficiency) [4]: most potent structures | gene silencing efficiency of siRNA polyplexes in three cell lines [5]: great performance in all three tested cell lines

K[K(10Oc)2]2-Stp [compound 1762]
gene silencing (eGFP silencing) of siRNA LNPs [3]: approximately the same potential for eGFP silencing | Pdl [1, 11]: 0.104 | Z-average [1, 11]: 244.3 nm | Zeta potential [1, 11]: −3.2 mV

[K(12Oc)]2-Stp2-[K(12Oc)]2 [compound 1719]
Pdl [1, 12]: 0.268 | Z-average [1, 12]: 80.8 nm | Zeta potential [1, 12]: 42.6 mV | Pdl [1, 13]: 0.13 | Size [1, 13]: 76 | Zeta [1, 13]: 10.5 | Pdl [1, 14]: 0.13 | Size [1, 14]: 88 | Zeta [1, 14]: 10.5 | Pdl [1, 15]: 0.09 | Size [1, 15]: 77 | Zeta [1, 15]: 29.5 | Pdl [1, 16]: 0.176 ± 0.016 | Zeta potential [1, 16]: 30.7 ± 1.7 mV | Pdl [1, 17]: 0.225 | Z-average [1, 17]: 75.0 nm | Zeta potential [1, 17]: 33.0 mV | Pdl [1, 18]: 0.220 ± 0.001 | Z-average [1, 18]: 110.4 ± 1.89 nm | Zeta potential [1, 18]: 13.0 ± 0.5 mV | Pdl [1, 19]: 0.32 ± 0.08 | Z-average [1, 19]: 86.8 ± 11.4 nm | Zeta potential [1, 19]: 23.2 ± 0.4 mV | Pdl [1, 20]: 0.25 ± 0.05 | Z-average [1, 20]: 95.9 ± 2.1 nm | Zeta potential [1, 20]: 13.8 ± 2.9 mV | RLU values of targeted polyplexes in comparison to shielded polyplexes ([6]; N/P 12, pDNA dose 50 ng/well): 6.5 fold | RLU values of targeted polyplexes in comparison to shielded polyplexes ([6]; N/P 12, pDNA dose 100 ng/well): 4.4 fold | cell viability after poly(I:C) polyplex treatment [7]: significant decrease in the cell viability | in vivo luciferase expression of mRNA polyplexes [8]: great in vivo performance

K(8Oc)2-Stp2-K[K(8Oc)2] [compound 1732]
Pdl [1, 17]: 0.304 | Z-average [1, 17]: 98.2 nm | Zeta potential [1, 17]: 26.2 mV | eGFP knock-out efficiency of Cas9 mRNA/sgRNA polyplexes [9]: good knock-out efficiency
